Values of other authors in patent US20190117606A1, “COMPOSITIONS COMPRISING L-THEANINE, PROANTHOCYANIDIN/S AND A CATECHIN AND USES THEREOF” (priority 2016, published 2019).

Details: in vivo

**Q.** For `CCNC(=O)CC[C@H](N)C(=O)O` [L-theanine, γ-glutamylethylamide], which “Crossing of the blood-brain barrier” value is on record?
**A.** known to cross the blood-brain barrier

**Q.** What about the “Time to peak concentrations after consumption” value of the same compound?
**A.** about one
